20 molecules from patent US20210038607A1, “OXADIAZOLYLTHIOPHENE DERIVATIVES USEFUL AS HISTONE DEACETYLASE INHIBITORS” (Karus Therapeutics Limited, priority 2018, published 2021) can be followed below.

One test addresses T1, Human HDAC10 (Homo sapiens, UniProt Q969S8).
T1 construct: Human HDAC10 (a.a. 1-481); GST (N); His (C); host or cells: baculovirus expression system
T1 sequence (Q969S8 1-481): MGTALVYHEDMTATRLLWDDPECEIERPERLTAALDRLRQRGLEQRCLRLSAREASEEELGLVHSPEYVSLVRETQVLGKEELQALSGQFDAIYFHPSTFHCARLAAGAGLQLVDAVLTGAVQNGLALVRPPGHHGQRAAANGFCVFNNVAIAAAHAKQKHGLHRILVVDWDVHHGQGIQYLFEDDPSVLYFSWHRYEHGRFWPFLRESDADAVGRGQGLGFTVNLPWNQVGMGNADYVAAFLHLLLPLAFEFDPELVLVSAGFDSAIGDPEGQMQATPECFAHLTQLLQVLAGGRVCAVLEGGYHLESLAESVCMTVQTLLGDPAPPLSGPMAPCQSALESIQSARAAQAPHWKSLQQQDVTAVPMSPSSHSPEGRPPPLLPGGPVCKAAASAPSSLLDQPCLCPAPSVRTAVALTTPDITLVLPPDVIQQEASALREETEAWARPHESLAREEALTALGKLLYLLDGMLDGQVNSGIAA
Kind of test: HDAC10 biochemical assay, AMC-labeled peptide substrate. The following applies: read-out: HDAC Isoform IC50 (nM) 10. On the procedure:
(§1) Activity against all zinc-dependent HDACs 1 to 11 was assessed by using an acetylated AMC-labeled peptide substrate. The substrate RHKK(Ac)AMC was used for HDAC1, HDAC2, HDAC3, HDAC6 and HDAC10; the substrate used for HDAC8 was RHK(Ac)K(Ac)AMC. Activity against the class IIa HDACs (HDAC4, 5, 7, 9) and HDAC11 was determined using a class IIa-specific substrate, BOC-Lys(trifluoroacetyl)-AMC (“Trifluoroacetyl Lysine”; see Lahm et al, 2007, PNAS, 104, 17335-17340). All assays were based on the AMC-labeled substrate and developer combination.
(§2) The protocol involved a two-step reaction: first, the substrate with the acetylated lysine side chain is incubated with a sample containing HDAC activity, to produce the deacetylated products, which are then digested in the second step by the addition of developer to produce the fluorescent signal proportional to the amount of deacetylated substrates.
Human HDAC10 (a.a. 1-481), GenBank Accession No. NM_032019 with N-terminal GST tag and C-terminal His tag, MW=78 kDa, expressed in baculovirus expression system.
(§3) Assay Buffer: 50 mM Tris-HCl, pH8.0, 137 mM NaCl, 2.7 mM KCl, 1 mM MgC2. Before use, 1 mg/mL BSA and DMSO are added.
HDAC10: 12 ng/ul HDAC10 and 50 μM HDAC substrate are in the reaction buffer with 1% DMSO final. Incubate for 2 hours at 30° C.
(§4) Stage 1: Deacetylation of substrate by incubation of HDAC enzymes with compounds
(§5) Stage 2: Development by addition of Developer to digest the deacetylated substrate, and generate the fluorescent colour; Detection: 360/460 Ex/Em

Another test has as its target T2, Human HDAC2 (Homo sapiens, UniProt Q92769).
T2 construct: full length with C-terminal GST-tag; GST (C); host or cells: baculovirus expression system
Kind of test: HDAC2 biochemical assay, AMC-labeled peptide substrate. To be noted: read-out: HDAC Isoform IC50 (nM) 2. The method, then:
as §1, §2
Human HDAC2 (GenBank Accession No. NM_001527), full length with C-terminal GST-tag, MW=82.9 kDa, expressed inbaculovirus expression system.
as §3
HDAC2: 0.07 ng/ul HDAC2 and 50 μM HDAC substrate are in the reaction buffer with 1% DMSO final. Incubate for 1 hour at 30° C.
as §4, §5

T2 sequence (Q92769 whole entry): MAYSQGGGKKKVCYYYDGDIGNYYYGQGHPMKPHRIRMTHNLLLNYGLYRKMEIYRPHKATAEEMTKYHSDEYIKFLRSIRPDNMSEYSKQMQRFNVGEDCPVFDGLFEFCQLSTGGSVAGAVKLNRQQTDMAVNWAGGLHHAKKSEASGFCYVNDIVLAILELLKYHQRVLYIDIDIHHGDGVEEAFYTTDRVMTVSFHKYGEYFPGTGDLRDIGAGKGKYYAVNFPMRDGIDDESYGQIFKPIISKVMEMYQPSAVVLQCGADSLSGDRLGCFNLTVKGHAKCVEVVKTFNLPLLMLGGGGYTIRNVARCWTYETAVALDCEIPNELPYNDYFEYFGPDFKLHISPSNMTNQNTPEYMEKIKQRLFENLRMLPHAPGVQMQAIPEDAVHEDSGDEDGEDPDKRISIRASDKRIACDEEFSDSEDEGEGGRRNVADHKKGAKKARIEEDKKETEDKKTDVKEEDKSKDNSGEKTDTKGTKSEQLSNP

Usually IC50 stands for the concentration that gives 50% inhibition. Turning to `O=C(O)c1cnnc(N(Cc2sc(-c3noc(C(F)(F)F)n3)cc2F)c2cnccn2)c1` [Example FA, 6-[({3-fluoro-5-[5-(trifluoromethyl)-1,2,4-oxadiazol-3-yl]thiophen-2-yl}methyl)(pyrazin-2-yl)amino]pyridazine-4-carboxylic acid], the IC50 at Human HDAC10 and at Human HDAC2 was over 10000 nM throughout.

Consider `Nc1cnnc(N(Cc2ccc(-c3noc(C(F)(F)F)n3)s2)c2cnccn2)c1` [Example FL, N3-(Pyrazin-2-yl)-N3-({5-[5-(trifluoromethyl)-1,2,4-oxadiazol-3-yl]thiophen-2-yl}methyl)pyridazine-3,5-diamine], for which the IC50 at Human HDAC10 and at Human HDAC2 was over 10000 nM in each case.

As for `CC(=O)Nc1cnnc(N(Cc2ccc(-c3noc(C(F)(F)F)n3)s2)c2cnccn2)c1` [Example FM, N-{6-[(Pyrazin-2-yl)({5-[5-(trifluoromethyl)-1,2,4-oxadiazol-3-yl]thiophen-2-yl}methyl)amino]pyridazin-4-yl}acetamide], the IC50 at Human HDAC10 and on Human HDAC2 was over 10000 nM throughout.

`FC(F)(F)c1nc(-c2ccc(CN(c3cnccn3)c3cc(N4CCOCC4)cnn3)s2)no1` [Example FP, 5-(Morpholin-4-yl)-N-(pyrazin-2-yl)-N-({5-[5-(trifluoromethyl)-1,2,4-oxadiazol-3-yl]thiophen-2-yl}methyl)pyridazin-3-amine]: the 50% inhibitory concentration (IC50) at Human HDAC10 and at Human HDAC2 was over 10000 nM in each case.

As to `FC(F)(F)c1nc(-c2ccc(CN(c3cnccn3)c3cc(N4CCCC4)cnn3)s2)no1` [Example FQ, N-(Pyrazin-2-yl)-5-(pyrrolidin-1-yl)-N-({5-[5-(trifluoromethyl)-1,2,4-oxadiazol-3-yl]thiophen-2-yl}methyl)pyridazin-3-amine], the half-inhibitory concentration (IC50) at Human HDAC10 and on Human HDAC2 was over 10000 nM in each case.

Regarding `O=C(c1ccc(N(Cc2ccc(-c3noc(C(F)(F)F)n3)s2)c2cnccn2)nn1)N1C[C@@H]2C[C@H]1C[S@@+]2[O-]` [Example FR, (1S,2R,4S)-5-{6-[(Pyrazin-2-yl)({5-[5-(trifluoromethyl)-1,2,4-oxadiazol-3-yl]thiophen-2-yl}methyl)amino]pyridazine-3-carbonyl}-2-thia-5-azabicyclo[2.2.1]heptan-2-ium-2-olate], the IC50 at Human HDAC10 and on Human HDAC2 was over 10000 nM throughout.

Consider `O=C(c1cnnc(N(Cc2ccc(-c3noc(C(F)(F)F)n3)s2)c2cnccn2)c1)N1CC(F)(F)C1` [Example FT, 5-(3,3-Difluoroazetidine-1-carbonyl)-N-(pyrazin-2-yl)-N-({5-[5-(trifluoromethyl)-1,2,4-oxadiazol-3-yl]thiophen-2-yl}methyl)pyridazin-3-amine], for which the concentration for half-maximal inhibition (IC50) at Human HDAC10 and on Human HDAC2 was over 10000 nM each time.

On to `O=C(c1cnnc(N(Cc2ccc(-c3noc(C(F)(F)F)n3)s2)c2cnccn2)c1)N1CCC(F)(F)CC1` [Example FY, 5-(4,4-Difluoropiperidine-1-carbonyl)-N-(pyrazin-2-yl)-N-({5-[5-(trifluoromethyl)-1,2,4-oxadiazol-3-yl]thiophen-2-yl}methyl)pyridazin-3-amine], for which the half-maximal inhibitory concentration (IC50) at Human HDAC10 and at Human HDAC2 was over 10000 nM in each case.

For `O=C(c1cnnc(N(Cc2ccc(-c3noc(C(F)(F)F)n3)s2)c2cnccn2)c1)N1CC2(COC2)C1` [Example FZ, 5-{2-Oxa-6-azaspiro[3.3]heptane-6-carbonyl}-N-(pyrazin-2-yl)-N-({5-[5-(trifluoromethyl)-1,2,4-oxadiazol-3-yl]thiophen-2-yl}methyl)pyridazin-3-amine], the IC50 at Human HDAC10 and on Human HDAC2 was over 10000 nM throughout.

Take `O=C(c1cnnc(N(Cc2ccc(-c3noc(C(F)(F)F)n3)s2)c2cnccn2)c1)N1CC2CCC(C1)O2` [Example GA, 5-{8-Oxa-3-azabicyclo[3.2.1]octane-3-carbonyl}-N-(pyrazin-2-yl)-N-({5-[5-(trifluoromethyl)-1,2,4-oxadiazol-3-yl]thiophen-2-yl}methyl)pyridazin-3-amine]: the IC50 on Human HDAC10 and on Human HDAC2 was over 10000 nM each time.

In the case of `O=C(c1cnnc(N(Cc2ccc(-c3noc(C(F)(F)F)n3)s2)c2cnccn2)c1)N1C2CCC1COC2` [Example GB, 5-{3-Oxa-8-azabicyclo[3.2.1]octane-8-carbonyl}-N-(pyrazin-2-yl)-N-({5-[5-(trifluoromethyl)-1,2,4-oxadiazol-3-yl]thiophen-2-yl}methyl)pyridazin-3-amine], the 50% inhibitory concentration (IC50) at Human HDAC10 and at Human HDAC2 was over 10000 nM each time.

`CC(C)OC1CN(C(=O)c2cnnc(N(Cc3ccc(-c4noc(C(F)(F)F)n4)s3)c3cnccn3)c2)C1` [Example GC, 5-[3-(Propan-2-yloxy)azetidine-1-carbonyl]-N-(pyrazin-2-yl)-N-({5-[5-(trifluoromethyl)-1,2,4-oxadiazol-3-yl]thiophen-2-yl}methyl)pyridazin-3-amine]: the IC50 at Human HDAC10 and on Human HDAC2 was over 10000 nM in each case.

As for `O=C(c1cnnc(N(Cc2ccc(-c3noc(C(F)(F)F)n3)s2)c2cnccn2)c1)N1CC(O)(C(F)(F)F)C1` [Example GD, 1-{6-[(Pyrazin-2-yl)({5-[5-(trifluoromethyl)-1,2,4-oxadiazol-3-yl]thiophen-2-yl}methyl)amino]pyridazine-4-carbonyl}-3-(trifluoromethyl)azetidin-3-ol], the half-inhibitory concentration (IC50) at Human HDAC10 and at Human HDAC2 was over 10000 nM throughout.

With `CN(C(=O)c1cnnc(N(Cc2ccc(-c3noc(C(F)(F)F)n3)s2)c2cnccn2)c1)S(C)(=O)=O` [Example GE, N-Methanesulfonyl-N-methyl-6-[(pyrazin-2-yl)({5-[5-(trifluoromethyl)-1,2,4-oxadiazol-3-yl]thiophen-2-yl}methyl)amino]pyridazine-4-carboxamide], the IC50 on Human HDAC10 and at Human HDAC2 was over 10000 nM throughout.

For the molecule `FC(F)(F)c1nc(-c2ccc(CN(c3cnccn3)c3cc(CN4CCCC4)ccn3)s2)no1` [Example GG, N-{4-[(Pyrrolidin-1-yl)methyl]pyridin-2-yl}-N-({5-[5-(trifluoromethyl)-1,2,4-oxadiazol-3-yl]thiophen-2-yl}methyl)pyrazin-2-amine], the half-maximal inhibitory concentration (IC50) at Human HDAC10 and at Human HDAC2 was over 10000 nM in each case.

Take `FC(F)(F)c1nc(-c2ccc(CN(c3cnccn3)c3cc(-c4ccccn4)cnn3)s2)no1` [Example GM, N-(Pyrazin-2-yl)-5-(pyridin-2-yl)-N-({5-[5-(trifluoromethyl)-1,2,4-oxadiazol-3-yl]thiophen-2-yl}methyl)pyridazin-3-amine]: the IC50 at Human HDAC10 and at Human HDAC2 was over 10000 nM each time.

`Cc1cnnc(N(Cc2ccc(-c3noc(C(F)(F)F)n3)s2)c2cnccn2)c1` [Example GN, 5-Methyl-N-(pyrazin-2-yl)-N-({5-[5-(trifluoromethyl)-1,2,4-oxadiazol-3-yl]thiophen-2-yl}methyl)pyridazin-3-amine]: the IC50 on Human HDAC10 and on Human HDAC2 was over 10000 nM in each case.

With `NC(=O)c1nccnc1N(Cc1ccc(-c2noc(C(F)(F)F)n2)s1)c1cnccn1` [Example GO, 3-[(Pyrazin-2-yl)({5-[5-(trifluoromethyl)-1,2,4-oxadiazol-3-yl]thiophen-2-yl}methyl)amino]pyrazine-2-carboxamide], the IC50 on Human HDAC10 and at Human HDAC2 was over 10000 nM throughout.

On to `O=C(c1nccnc1N(Cc1ccc(-c2noc(C(F)(F)F)n2)s1)c1cnccn1)N1CC(O)(C(F)(F)F)C1` [Example GQ, 1-{3-[(Pyrazin-2-yl)({5-[5-(trifluoromethyl)-1,2,4-oxadiazol-3-yl]thiophen-2-yl}methyl)amino]pyrazine-2-carbonyl}-3-(trifluoromethyl)azetidin-3-ol], for which the half-maximal inhibitory concentration (IC50) on Human HDAC10 and on Human HDAC2 was over 10000 nM throughout.

For the molecule `O=C(c1cncc(N(Cc2ccc(-c3noc(C(F)(F)F)n3)s2)c2cnccn2)c1)N1CCOCC1` [Example GR, N-[5-(Morpholine-4-carbonyl)pyridin-3-yl]-N-({5-[5-(trifluoromethyl)-1,2,4-oxadiazol-3-yl]thiophen-2-yl}methyl)pyrazin-2-amine], the IC50 at Human HDAC10 and at Human HDAC2 was over 10000 nM in each case.
